Laboratory results reported in patent US9585393B2, “Saflufenacil, flumioxazin, and 2,4-D weed control compositions and methods of use thereof” (Valent U.S.A., Corporation, priority 2014, dated 2017).

Key:
Horseweed = test: Field test, post emergence weed control: Horseweed; assay type: in vivo, Conyza Canadensis; conditions: for Effect on Weeds, Plants: Horseweed: 11 DAT, MSO 1% v/v; for control (Actual % Control) / % Alone: Horseweed; for control (Actual % Control): rounded Table 1 values, saflufenacil 0.011, flumioxazin 0.064, 2,4-D 0.5 lb ai/acre as present; for % Alone: synergy calculation, each component alone (saflufenacil 0.011, 2,4-D 0.5, flumioxazin 0.064 lb ai/acre)
Experimental: (§1) The following field test was conducted during spring in Mississippi. Sharpen® was used in the test as the source of saflufenacil. Valor® was used in the test as the source of flumioxazin. Roundup Ready soybeans (Glycine max) were used in the test as the crop plant. All of the treatments contained MSO concentrate oil at 1% v/v.
(§2) When the test began, the test plot had Horseweed that was 6 to 20 inches tall. Applications were administered at the concentrations as follows. Saflufenacil was administered at 0.011, 0.017 or 0.022 lb ai/acre (indicated in the table as “S” followed by the amount). Flumioxazin was administered at 0.064 lb ai/acre, and 2,4-D was administered at 0.5 lb ai/acre throughout the experiment. Three days after the treatment (3 DAT), soybeans were planted across the front of the plot. On 7 DAT, another pass of soybeans was planted across the front of the plot with a 30 inch planter. Each test was
(§3) On 11 DAT, readings were taken to determine the survival of Horseweed and Crabgrass. On 12 DAT, readings were taken to determine the survival of Palmer Amaranth, Broadleaf Signalgrass, Common Barnyardgrass, Yellow Nutsedge, and Eclipta. Survival ratings were taken by counting the number of alive and dead plants at the time of the reading. The pytotoxicity of each treatment was also evaluated by examining the soybeans at 11 and 12 DAT. All data was analyzed using Bartlett's test and with p value of […] for determining significance of the results. The Effect of Saflufenacil, Flumioxazin and 2,4-D on Weeds.”
Applicants used the widely accepted fraction method for determining synergy. The fraction method involves not merely adding together the individual control percentages together, as that will often be greater than 100%. The fraction method involves taking the control as a decimal value (X), multiplying the 1 minus X values together, then taking the “1 minus” value to get the calculated control as a decimal value. For example, if two products give 60% control, the additive or predicted value would be 84% and not 120%. See Rao, V. S., Principles of Weed Science, Second Edition, (2000) 351-352, and the illustrative example below.

Large Crabgrass = test: Field test, post emergence weed control: Large Crabgrass; assay type: in vivo, Digitaria sanguinalis; conditions: 11 DAT, MSO 1% v/v
Experimental: as §1, §2, §3

Palmer Amaranth = test: Field test, post emergence weed control: Palmer Amaranth; assay type: in vivo, Amaranthus palmeri; conditions: 12 DAT, MSO 1% v/v
Experimental: as §1, §2, §3

Broadleaf Signalgrass = test: Field test, post emergence weed control: Broadleaf Signalgrass; assay type: in vivo, Brachiaria platyhylla; conditions: 12 DAT, MSO 1% v/v
Experimental: as §1, §2, §3

Common Barnyardgrass = test: Field test, post emergence weed control: Common Barnyardgrass; assay type: in vivo, Echinochloa crus-galli; conditions: 12 DAT, MSO 1% v/v
Experimental: as §1, §2, §3

Yellow Nutsedge = test: Field test, post emergence weed control: Yellow Nutsedge; assay type: in vivo, Cyperus esculentus; conditions: 12 DAT, MSO 1% v/v
Experimental: as §1, §2, §3

Eclipta = test: Field test, post emergence weed control: Eclipta; assay type: in vivo, Eclipta prostrata; conditions: 12 DAT, MSO 1% v/v
Experimental: as §1, §2, §3

[1] = saflufenacil 0.011 lb ai/acre (flumioxazin 0.064, 2,4-D 0.5 lb ai/acre where in the treatment)
[2] = saflufenacil 0.017 lb ai/acre (flumioxazin 0.064, 2,4-D 0.5 lb ai/acre where in the treatment)
[3] = saflufenacil 0.022 lb ai/acre (flumioxazin 0.064, 2,4-D 0.5 lb ai/acre where in the treatment)
[4] = no saflufenacil, flumioxazin 0.064 lb ai/acre, 2,4-D 0.5 lb ai/acre

CC(C)N(C)S(=O)(=O)NCc1cc(-n2c(=O)cc(C(F)(F)F)n(C)c2=O)c(F)cc1Cl [S, N′-[2-chloro-4-fluoro-5-(3-methyl-2,6-dioxo-4-(trifluoromethyl)-3,6-dihydro-1(2H)-pyrimidinyl)benzyl]-N-isopropyl-N-methylsulfamide]
Effect on Weeds, Plants: Horseweed (Horseweed; [1]): 66.7 | Effect on Weeds, Plants: Horseweed (Horseweed; [2]): 78.3 | Effect on Weeds, Plants: Horseweed (Horseweed; [3]): 86.7 | control (Actual % Control) (Horseweed): 67% | % Alone (Horseweed): 67.00% | Effect on Weeds, Plants: Large Crabgrass (Large Crabgrass; [1]): 43.3 | Effect on Weeds, Plants: Large Crabgrass (Large Crabgrass; [2]): 60.0 | Effect on Weeds, Plants: Large Crabgrass (Large Crabgrass; [3]): 56.7 | Effect on Weeds, Plants: Palmer Amaranth (Palmer Amaranth; [1]): 91.0 | Effect on Weeds, Plants: Palmer Amaranth (Palmer Amaranth; [2]): 91.3 | Effect on Weeds, Plants: Palmer Amaranth (Palmer Amaranth; [3]): 96.0 | Effect on Weeds, Plants: Broadle Signalgrass (Broadleaf Signalgrass; [1]): 31.7 | Effect on Weeds, Plants: Broadle Signalgrass (Broadleaf Signalgrass; [2]): 45.0 | Effect on Weeds, Plants: Broadle Signalgrass (Broadleaf Signalgrass; [3]): 31.7 | Effect on Weeds, Plants: Common Barnyardgrass (Common Barnyardgrass; [1]): 31.7 | Effect on Weeds, Plants: Common Barnyardgrass (Common Barnyardgrass; [2]): 41.7 | Effect on Weeds, Plants: Common Barnyardgrass (Common Barnyardgrass; [3]): 25.0 | Effect on Weeds, Plants: Yellow Nutsedge (Yellow Nutsedge; [1]): 23.3 | Effect on Weeds, Plants: Yellow Nutsedge (Yellow Nutsedge; [2]): 35.0 | Effect on Weeds, Plants: Yellow Nutsedge (Yellow Nutsedge; [3]): 30.0 | Effect on Weeds, Plants: Eclipta (Eclipta; [1]): 83.0 | Effect on Weeds, Plants: Eclipta (Eclipta; [2]): 91.3 | Effect on Weeds, Plants: Eclipta (Eclipta; [3]): 93.0

C#CCN1C(=O)COc2cc(F)c(N3C(=O)C4=C(CCCC4)C3=O)cc21 [Flumioxazin, 2-[7-fluoro-3,4-dihydro-3-oxo-4-(2-propynyl)-2H-1,4-benzoxazin-6-yl]-4,5,6,7-tetrahydro-1H-isoindole-1,3(2H)-dione]
Effect on Weeds, Plants: Horseweed (Horseweed; [4]): 15.0 | control (Actual % Control) (Horseweed): 15% | % Alone (Horseweed): 15.00% | Effect on Weeds, Plants: Large Crabgrass (Large Crabgrass; [4]): 70.0 | Effect on Weeds, Plants: Palmer Amaranth (Palmer Amaranth; [4]): 96.0 | Effect on Weeds, Plants: Broadle Signalgrass (Broadleaf Signalgrass; [4]): 45.0 | Effect on Weeds, Plants: Common Barnyardgrass (Common Barnyardgrass; [4]): 45.0 | Effect on Weeds, Plants: Yellow Nutsedge (Yellow Nutsedge; [4]): 42.5 | Effect on Weeds, Plants: Eclipta (Eclipta; [4]): 86.3

O=C(O)COc1ccc(Cl)cc1Cl [2,4-D, 2,4-Dichlorophenoxyacetic acid]
Effect on Weeds, Plants: Horseweed (Horseweed; [4]): 11.7 | control (Actual % Control) (Horseweed): 12% | % Alone (Horseweed): 12.00% | Effect on Weeds, Plants: Large Crabgrass (Large Crabgrass; [4]): 50.0 | Effect on Weeds, Plants: Palmer Amaranth (Palmer Amaranth; [4]): 91.0 | Effect on Weeds, Plants: Broadle Signalgrass (Broadleaf Signalgrass; [4]): 21.7 | Effect on Weeds, Plants: Common Barnyardgrass (Common Barnyardgrass; [4]): 15.0 | Effect on Weeds, Plants: Yellow Nutsedge (Yellow Nutsedge; [4]): 8.3 | Effect on Weeds, Plants: Eclipta (Eclipta; [4]): 91.0
